Results: patent US20100330200A1, “COMBINATION OF A RETINOID AND A PLATINUM ANTICANCER AGENT” (SIGMA-TAU INDUSTRIE FARMACEUTICHE RIUNITE S.P.A., priority 2006, published 2010)
Where “and” joins values, the source holds several entries; their conditions need not be identical. Equal values may be shown once. Read-outs that look alike come from different tables or passages of the source.

Legend:
A2780/DDP = conditions: for LCK (gross log10 cell kill) / TVI % Obs.: A2780/DDP s.c.
Text: (§1) Drug treatment started at different tumor sizes.
(§2) Cisplatin was delivered intravenously every seventh day for three times (q7d×3).
(§3) For statistical comparison of tumor volumes in treated vs. control mice the Student's t test (two-sided) was used.

1A9PTX22 = conditions: for LCK (gross log10 cell kill) / TVI % Obs.: 1A9PTX22 s.c.
Text: as §1, §2, §3

A2780 ovarian carcinoma = conditions: for LCK (gross log10 cell kill) / TVI % Obs.: A2780 s.c.
Text: as §1, §2, §3

HOC18 ovarian carcinoma = system: HOC18 ovarian carcinoma
Text: as §1, §2, §3

[1] = system: MDA-MB231 bone metastases; conditions: for Incidence of ostelytic lesions (%) / Incidence of ostelytic lesions (mice/total) / Osteolytic area mm^2 ± SD / Osteolytic area square pixel ± SD: 29 days after tumor implantation, cisplatin 3.1 mg/kg iv q7dx3; for Incidence of ostelytic lesions (%) / Incidence of ostelytic lesions (mice/total) / Osteolytic area mm^2 ± SD / Osteolytic area square pixel ± SD / frequency of osteolysis in tibias compared with the control group: ST1926 25 mg/kg po qdx2/wx3w; for frequency of osteolysis in tibias compared with the control group: radiographs 29 days from injection, cisplatin 3.1 iv q7dx3
Description: A human breast cancer cell line, MDA-MB231 was cultured in DMEM supplemented with 10% FCS and 1% penicillin-streptomycin solution in a humidified atmosphere of 5% CO2 in air. Cultured used for intratibial injection were at subconfluency. Cells (1×10^5) were suspended in 0.1 ml of PBS and injected into the tibia of female BALB/c-nu/nu mice with the use of a 27-gauge needle under the anesthesia ip of ketamine and xylazine chloride.
Animals were housed under a light-dark cycle, keeping temperature and humidity constant. Parameters of the animal rooms were assessed as follows: 22±2° C. temperature, 55±10% relative humidity, about 15-20 filtered air changes/hour and 12 hour circadian cycle of artificial light (7 a.m., 7 p.m.). At request, the environmental conditions were monitored and the data are retained in Animal Housing Archives. Drinking water was supplied ad libitum. Each mouse was offered daily a complete pellet diet (GLP 4RF21, Mucedola) throughout the study. The analytical certificates of animal food and water are retained at Sigma-Tau premises. All animals were weighed before starting the experiment and were subdivided into the different dosage groups. Each cage was identified by a paper tag indicating: cage number, group, date of tumor injection, starting date of treatment, name of the test item, dose and route of administration, date of sacrifice.
Incidence of osteolytic lesions and ostelytic area were evaluated 29 days after tumor implantation.

[2] = system: human ovarian carcinoma xenografts; assay: Panel of human ovarian carcinoma xenografts, statements over several tumors
Text: as §1, §2

[3] = system: IGROV-1 ovarian carcinoma; assay: i.p. growing IGROV-1 tumor, locoregional treatment, survival; type: in vivo
Description: The IGROV-1 ovarian carcinoma line was maintained by serial intraperitoneal passages in healthy mice. Tumor grows as ascites and small solid masses. IGROV-1 ascitic cells were collected and prepared as previously described [Pratesi G., Tortoreto M., Zunino F., Reg. Cancer Treat., 1990; 3:40-43] and 2.5×10^6 cells/mouse (in 0.2 ml of saline) were injected intraperitoneally. Mice developed hemorrhagic and diffuse carcinomatosis and eventually died by 20 to 35 days. Animals were inspected daily and weighed three times a week. The median day of death (median survival time: MST) was considered as the experimental end point.
Experimental groups consisted of seven mice.
The compound was delivered intraperitoneally at a dose of 10 mg/kg, daily for 5 days a week for 4 weeks (qd×5/w×4w), starting the day after cell injection. Drug activity was assessed as increase in life span (ILS) %, i.e. the percentage increase of MST in treated (T) over control (C) mice (T/C×100−100). Mice alive at the end of experiment (day 88) without disease were considered “long term survivors” (LTS).
For statistical comparison, curves reporting the percentage of surviving animals over time were estimated by the Kaplan-Meier product limit method and compared with the log-rank test. The test was two-sided.

[4] = system: IGROV-1 ovarian carcinoma; conditions: in vivo
in vivo = conditions: female, athymic Swiss nude, mouse, po
[5] = system: IGROV-1 ovarian carcinoma; assay: s.c. growing IGROV-1 tumor, ST1926 doses and schedules
[6] = system: FaDu human squamous pharynx carcinoma; assay: FaDu squamous pharynx carcinoma s.c. xenograft; type: in vivo, mouse (human xenograft); conditions: ST1926 25 mg/kg oral qdx2/wx3w, carboplatin 40 mg/kg ip q7dx3, combination: carboplatin 1 h before ST1926
Description: The FaDu human squamous pharynx carcinoma cells (3×10^6 tumor cells) were injected sc in the right flank of CD1 nude female mice.

[7] = cisplatin 3.1 mg/kg iv q7dx3, 1st day 2
[8] = HOC18 s.c., cisplatin 3.1 mg/kg iv q7dx3
[9] = HOC18 s.c., cisplatin 4.7 mg/kg iv q7dx3
[10] = ST1926 45 mg/kg oral qdx2/wx3w, 1st day 2
[11] = ST1926 30 mg/kg oral qdx2/wx3w, 1st day 34
[12] = ST1926 30 mg/kg oral qdx2/wx3w, 1st day 2
[13] = HOC18 s.c., ST1926 30 mg/kg oral qdx2/wx3w, 1st day 27
[14] = i.p. growing tumor, 10 mg/kg i.p. qdx5/wx4w

N.N.[Cl][Pt][Cl] [Cisplatin, cisplatin]
LCK (gross log10 cell kill) (A2780/DDP; cisplatin 4.7 mg/kg iv q7dx3): 0
TVI % Obs. (A2780/DDP; cisplatin 4.7 mg/kg iv q7dx3): 15%
LCK (gross log10 cell kill) (1A9PTX22; cisplatin 3.1 mg/kg iv q7dx3): 0.3
TVI % Obs. (1A9PTX22; cisplatin 3.1 mg/kg iv q7dx3): 38%
LCK (gross log10 cell kill) (1A9PTX22; cisplatin 4.7 mg/kg iv q7dx3): 0.6
TVI % Obs. (1A9PTX22; cisplatin 4.7 mg/kg iv q7dx3): 57%
LCK (gross log10 cell kill) (A2780 ovarian carcinoma; [7]): 0.4
TVI % Obs. (A2780 ovarian carcinoma; [7]): 40%
LCK (gross log10 cell kill) (A2780 ovarian carcinoma; cisplatin 4.7 mg/kg iv q7dx3): 1.2
TVI % Obs. (A2780 ovarian carcinoma; cisplatin 4.7 mg/kg iv q7dx3): 80%
LCK (gross log10 cell kill) (HOC18 ovarian carcinoma; [8]): 1.0
TVI % Obs. (HOC18 ovarian carcinoma; [8]): 41%
LCK (gross log10 cell kill) (HOC18 ovarian carcinoma; [9]): >>1.7
TVI % Obs. (HOC18 ovarian carcinoma; [9]): 81%
NED (not evidence of disease at the end of the experiment) (HOC18 ovarian carcinoma; HOC18 s.c., cisplatin 4.7 mg/kg iv q7dx3, tumors/total): 1/10
complete responses (no evidence of disease at the experiment end), tumors (HOC18 ovarian carcinoma; HOC18 tumor, dose groups taken together): 1/10
Incidence of ostelytic lesions (%) [1]: 71%
Incidence of ostelytic lesions (mice/total) [1]: 5/7
Osteolytic area mm^2 ± SD [1]: 4.6 ± 1.9 mm^2
Osteolytic area square pixel ± SD [1]: 458 ± 190 square pixel
frequency of osteolysis in tibias compared with the control group [1]: no significant differences
body weight loss ([2]; optimal doses of cisplatin): around 20%

O=C(O)/C=C/c1ccc(-c2ccc(O)c(C34CC5CC(CC(C5)C3)C4)c2)cc1 [ST1926, E-4-(3-(1-adamantyl)-4-hydroxyphenyl)cinnamic acid]
LCK (gross log10 cell kill) (A2780/DDP; [10]): 0.8
TVI % Obs. (A2780/DDP; [10]): 41%
BWL % (highest) (A2780/DDP; in vivo, 45 mg/kg): 13%
LCK (gross log10 cell kill) (1A9PTX22; [11]): 0.3
TVI % Obs. (1A9PTX22; [11]): 35%
BWL % (highest) (1A9PTX22; in vivo, 30 mg/kg): 10%
LCK (gross log10 cell kill) (A2780 ovarian carcinoma; [12]): 0.4
TVI % Obs. (A2780 ovarian carcinoma; [12]): 40%
BWL % (highest) (A2780 ovarian carcinoma; in vivo, 30 mg/kg): 5%
LCK (gross log10 cell kill) (HOC18 ovarian carcinoma; [13]): 0.4
TVI % Obs. (HOC18 ovarian carcinoma; [13]): 37%
BWL % (highest) (HOC18 ovarian carcinoma; in vivo, 30 mg/kg): 3%
Incidence of ostelytic lesions (%) [1]: 63%
Incidence of ostelytic lesions (mice/total) [1]: 5/8
Osteolytic area mm^2 ± SD [1]: 3.1 ± 1.0 mm^2
Osteolytic area square pixel ± SD [1]: 310 ± 106 square pixel
tolerability in tumor-bearing mice ([1]; in vivo, po, 25 mg/kg): well-tolerated
frequency of osteolysis in tibias compared with the control group [1]: no significant differences
survival time over control mice ([3]; i.p. growing IGROV-1, 10 mg/kg qdx5/wx4 weeks): significantly (P<0.01) increased
ILS (increase in life span % in treated over control mice) [3, 14]: 91%
Tox (No. of dead mice/total no. of mice) [3, 14]: 0/7
LTS (long term survivors at the end of experiments, day 88) ([3]; i.p. growing tumor, 10 mg/kg i.p. qdx5/wx4w, 10 mg/kg): 2 out of 7 and 2/7
BWL (body weight loss %, highest) ([4]; 2 mg/kg): 12%
BWL (body weight loss %, highest) ([4]; 20 mg/kg): 25%
MTD (in vivo): 15 mg/kg
LCK ([5]; 15 mg/kg oral qdx2/wx2w): 0.1
TVI % ([5]; 15 mg/kg oral qdx2/wx2w): 39%
LCK ([5]; 15 mg/kg oral qdx5/wx3w): 0.4
TVI % ([5]; 15 mg/kg oral qdx5/wx3w): 52%
LCK ([5]; 5 × 2 mg/kg oral qdx5/wx4w): 0.3
TVI % ([5]; 5 × 2 mg/kg oral qdx5/wx4w): 35%
TVI [6]: 35%
TV inhibition, all the tumors investigated ([2]; ST1926 30 or 45 mg/kg per os qdx2/w for 2 or 3 weeks): ≤ 50%

N.N.O=C([O-])C1(C(=O)[O-])CCC1.[Pt+2] [carboplatin, reference compound]
TVI [6]: 52%
